Laboratory results: publication PMC6982354, “Promising New Inhibitors of Tyrosyl-DNA Phosphodiesterase I (Tdp 1) Combining 4-Arylcoumarin and Monoterpenoid Moieties as Components of Complex Antitumor Therapy” (International Journal of Molecular Sciences, 2019)

Each compound was assayed against T1, Tdp1 (Homo sapiens, UniProt Q9NUW8) (assay: Real-time detection of Tdp1 activity (FAM/BHQ1 oligonucleotide biosensor)). Settings: Tdp1 inhibition, 6-point concentration response curve.
T1 construct: made in house
T1 sequence (Q9NUW8 whole entry): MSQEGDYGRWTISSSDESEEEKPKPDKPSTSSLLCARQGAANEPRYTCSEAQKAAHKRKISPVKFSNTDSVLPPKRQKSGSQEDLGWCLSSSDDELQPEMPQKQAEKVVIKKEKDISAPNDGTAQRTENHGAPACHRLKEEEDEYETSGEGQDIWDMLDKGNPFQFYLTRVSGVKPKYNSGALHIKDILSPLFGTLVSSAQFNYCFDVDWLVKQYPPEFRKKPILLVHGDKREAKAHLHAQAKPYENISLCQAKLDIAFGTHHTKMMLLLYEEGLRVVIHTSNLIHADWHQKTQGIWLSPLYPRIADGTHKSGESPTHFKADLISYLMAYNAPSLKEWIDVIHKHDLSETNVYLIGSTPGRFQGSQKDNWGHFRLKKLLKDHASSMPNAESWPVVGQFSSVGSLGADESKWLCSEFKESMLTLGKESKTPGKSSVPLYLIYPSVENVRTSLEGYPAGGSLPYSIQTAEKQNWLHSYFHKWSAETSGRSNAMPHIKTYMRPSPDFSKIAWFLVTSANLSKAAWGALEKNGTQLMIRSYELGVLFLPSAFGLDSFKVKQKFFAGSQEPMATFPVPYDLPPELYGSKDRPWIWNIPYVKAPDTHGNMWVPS
Assay type: biochemical
Experimental: A previously designed, real-time, hexadecameric oligonucleotide biosensor with 5(6)-carboxyfluorescein (FAM) at the 5′ end and fluorophore quencher BHQ1 (Black Hole Quencher-1) at the 3′-end was used to determine the inhibitory properties of the new compounds.
Real-Time Detection of Tdp1 Activity. The Tdp1 activity measurements were carried out as described. […] Tdp1 inhibition was calculated by comparing the rate of increase in fluorescence in the presence of the compound to that of DMSO control wells. IC50 values were determined using a 6-point concentration response curve. The data were imported into the MARS Data Analysis 2.0 program (BMG LABTECH), and the slope during the linear phase (here data from 0 to 7 min) was calculated.
Compound `CC(C)=CCC/C(C)=C/COc1ccc2c(-c3ccccc3)cc(=O)oc2c1` [3aa, (E)-7-(3,7-Dimethylocta-2,6-dienyloxy)-4-phenyl-2H-chromen-2-one] has an IC50 of 490 ± 140 nM.
Work on `CC1(C)[C@H]2CC=C(CCOc3ccc4c(-c5ccccc5)cc(=O)oc4c3)[C@@H]1C2` [3ab, 7-(2-((1R,5S)-6,6-Dimethylbicyclo[3 1.1]hept-2-en-2-yl)ethoxy)-4-phenyl-2H-chromen-2-one] yielded an IC50 of 410 ± 120 nM.
`CC1(C)[C@H]2CC=C(COc3ccc4c(-c5ccccc5)cc(=O)oc4c3)[C@@H]1C2` [3ac, 7-(((1R,5S)-6,6-Dimethylbicyclo[3.1.1]hept-2-en-2-yl)methoxy)-4-phenyl-2H-chromen-2-one] gave an IC50 of 460 ± 160 nM.
With `CC1(C)[C@@H]2CC=C(COc3ccc4c(-c5ccccc5)cc(=O)oc4c3)[C@H]1C2` [3ad, 7-(((1S,5R)-6,6-Dimethylbicyclo[3.1.1]hept-2-en-2-yl)methoxy)-4-phenyl-2H-chromen-2-one] the IC50 was 480 ± 110 nM.
For `CC1(C)[C@H]2CC=C(CCOc3ccc4c(-c5ccc(F)cc5)cc(=O)oc4c3)[C@@H]1C2` [3bb, 7-(2-((1R,5S)-6,6-Dimethylbicyclo[3.1.1]hept-2-en-2-yl)ethoxy)-4-(4-fluorophenyl)-2H-chromen-2-one], the IC50 was 7500 ± 700 nM.
With `CC1(C)[C@H]2CC=C(COc3ccc4c(-c5ccc(F)cc5)cc(=O)oc4c3)[C@@H]1C2` [3bc, 7-(((1R,5S)-6,6-Dimethylbicyclo[3.1.1]hept-2-en-2-yl)methoxy)-4-(4-fluorophenyl)-2H-chromen-2-one] the IC50 was 990 ± 300 nM.
With `CC1(C)[C@@H]2CC=C(COc3ccc4c(-c5ccc(F)cc5)cc(=O)oc4c3)[C@H]1C2` [3bd, 7-(((1S,5R)-6,6-Dimethylbicyclo[3.1.1]hept-2-en-2-yl)methoxy)-4-(4-fluorophenyl)-2H-chromen-2-one] the IC50 was 1030 ± 580 nM.
In the case of `CC(C)=CCC/C(C)=C/COc1ccc2c(-c3ccc(Br)cc3)cc(=O)oc2c1` [3ca, (E)-4-(4-Bromophenyl)-7-(3,7-dimethylocta-2,6-dienyloxy)-2H-chromen-2-one], the IC50 is reported as 900 ± 370 nM.
With `CC1(C)[C@H]2CC=C(CCOc3ccc4c(-c5ccc(Br)cc5)cc(=O)oc4c3)[C@@H]1C2` [3cb, 4-(4-Bromophenyl)-7-(2-((1R,5S)-6,6-dimethylbicyclo[3.1.1]hept-2-en-2-yl)ethoxy)-2H-chromen-2-one] the IC50 was 590 ± 70 nM.
Work on `CC1(C)[C@H]2CC=C(COc3ccc4c(-c5ccc(Br)cc5)cc(=O)oc4c3)[C@@H]1C2` [3cc, 4-(4-Bromophenyl)-7-(((1R,5S)-6,6-dimethylbicyclo[3.1.1]hept-2-en-2-yl)methoxy)-2H-chromen-2-one] yielded an IC50 of 3230 ± 350 nM.
Work on `CC1(C)[C@@H]2CC=C(COc3ccc4c(-c5ccc(Br)cc5)cc(=O)oc4c3)[C@H]1C2` [3cd, 4-(4-Bromophenyl)-7-(((1S,5R)-6,6-dimethylbicyclo[3.1.1]hept-2-en-2-yl)methoxy)-2H-chromen-2-one] yielded an IC50 of 430 ± 50 nM.
`COc1ccc(-c2cc(=O)oc3cc(OCCC4=CC[C@H]5C[C@@H]4C5(C)C)ccc23)cc1` [3db, 7-(2-((1R,5S)-6,6-Dimethylbicyclo[3.1.1]hept-2-en-2-yl)ethoxy)-4-(4-methoxyphenyl)-2H-chromen-2-one] gave an IC50 of 910 ± 130 nM.
`COc1ccc(-c2cc(=O)oc3cc(OCC4=CC[C@H]5C[C@@H]4C5(C)C)ccc23)cc1` [3dc, 7-(((1R,5S)-6,6-Dimethylbicyclo[3.1.1]hept-2-en-2-yl)methoxy)-4-(4-methoxyphenyl)-2H-chromen-2-one] gave an IC50 of 590 ± 150 nM.
`COc1ccc(-c2cc(=O)oc3cc(OCC4=CC[C@@H]5C[C@H]4C5(C)C)ccc23)cc1` [3dd, 7-(((1S,5R)-6,6-Dimethylbicyclo[3.1.1]hept-2-en-2-yl)methoxy)-4-(4-methoxyphenyl)-2H-chromen-2-one] gave an IC50 of 590 ± 60 nM.
Compound `O=c1cc(-c2ccc(Br)cc2)c2ccc(OCc3ccccc3)cc2o1` [10c, 7-(Benzyloxy)-4-(4-bromophenyl)-2H-chromen-2-one] has an IC50 of 2400 ± 800 nM.

Same assay, conditions: compared with the other derivatives of the series
In the case of `CC1(C)[C@H]2CC=C(COc3ccc4c(-c5ccccc5)cc(=O)oc4c3)[C@@H]1C2` [3ac, 7-(((1R,5S)-6,6-Dimethylbicyclo[3.1.1]hept-2-en-2-yl)methoxy)-4-phenyl-2H-chromen-2-one], the “Tdp1 inhibitory activity (in words)” value is reported as “slightly less active”.
`CC1(C)[C@H]2CC=C(CCOc3ccc4c(-c5ccc(F)cc5)cc(=O)oc4c3)[C@@H]1C2` [3bb, 7-(2-((1R,5S)-6,6-Dimethylbicyclo[3.1.1]hept-2-en-2-yl)ethoxy)-4-(4-fluorophenyl)-2H-chromen-2-one] was tested, and the “Tdp1 inhibitory activity (in words)” value was “markedly lower activity”.
